# In ChEMBL document CHEMBL1201862, “PubChem BioAssay data set” (2004):
#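 Interpolation was linear, between the two tested concentrations surrounding the appropriate level; five concentrations were tested over 48 hours in 96-well plates. GI50 is the concentration that inhibits growth by half.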 Calls of active or inactive are those of the source. Cut-off read from the data, not from the text of the source: active = GI50 up to about 1.1 µM and inactive = higher.
# Legend:
# Experiment in all cases: NCI-60 cell line screen, 48 h
# [1] = test system: LOX IMVI
# [2] = test system: KM12
# [3] = test system: HCT-15
# [4] = test system: NCI-H522
# [5] = test system: SNB-19
# [6] = test system: HOP-62
# [7] = test system: A549
# [8] = test system: NCI-H23
# [9] = test system: M14
# [10] = test system: TK-10
# [11] = test system: UACC-257
# [12] = test system: CAKI-1
# [13] = test system: MCF7
# [14] = test system: SNB-75
# [15] = test system: SW-620
# [16] = test system: HT-29
# [17] = test system: SK-MEL-28
# [18] = test system: U-251
# [19] = test system: OVCAR-5
# [20] = test system: BT-549
# [21] = test system: ACHN
# [22] = test system: MDA-MB-435
# [23] = test system: CCRF-CEM
# [24] = test system: Malme-3M
# [25] = test system: IGROV-1
# [26] = test system: SF-539
# [27] = test system: RPMI-8226
# [28] = test system: NCI-H460
# [29] = test system: Hs-578T
# [30] = test system: SK-MEL-2
# [31] = test system: UO-31
# [32] = test system: OVCAR-4
# [33] = test system: SN12C
# [34] = test system: SK-OV-3
# [35] = test system: SF-295
# [36] = test system: HL-60
# [37] = test system: HOP-92
# [38] = test system: RXF 393
# [39] = test system: DU-145
# [40] = test system: MDA-MB-231
# [41] = test system: MDA-N
# [42] = test system: MOLT-4
# [43] = test system: COLO 205
# [44] = test system: SF-268
# [45] = test system: OVCAR-8
# [46] = test system: 786-0
# [47] = test system: UACC-62
# [48] = test system: K562
# [49] = test system: HCT-116
# [50] = test system: PC-3
# [51] = test system: NCI/ADR-RES
# [52] = test system: NCI-H226
# [53] = test system: SK-MEL-5
# [54] = test system: T47D
# [55] = test system: A498
# [56] = test system: SR
# [57] = test system: OVCAR-3
compound,measurement,setting,value
O=c1/c(=C/c2ccc(-c3ccc(Cl)cc3Cl)o2)sc2n1[C@@H](c1ccc3c(c1)OCO3)C=C(c1cc(F)c(Cl)cc1Cl)N=2,GI50,[1],34.8 µM (inactive)
same,GI50,[2],57.5 µM (inactive)
same,GI50,[3],34.1 µM
same,GI50,[4],49.1 µM (inactive)
same,GI50,[5],28.8 µM (inactive)
same,GI50,[6],5.87 µM (inactive)
same,GI50,[7],46.1 µM (inactive)
same,GI50,[8],38.5 µM (inactive)
same,GI50,[9],28 µM (inactive)
same,GI50,[10],7.78 µM (inactive)
same,GI50,[11],22.6 µM (inactive)
same,GI50,[12],> 100 µM (inactive)
same,GI50,[13],26 µM (inactive)
same,GI50,[14],> 100 µM (inactive)
same,GI50,[15],35.8 µM (inactive)
same,GI50,[16],25.6 µM (inactive)
same,GI50,[17],91.8 µM (inactive)
same,GI50,[18],29.4 µM (inactive)
same,GI50,[19],58.7 µM (inactive)
same,GI50,[20],37.8 µM (inactive)
same,GI50,[21],69.2 µM (inactive)
same,GI50,[22],33.2 µM (inactive)
same,GI50,[23],38.7 µM (inactive)
same,GI50,[24],> 100 µM (inactive)
same,GI50,[25],34.3 µM (inactive)
same,GI50,[26],35.3 µM (inactive)
same,GI50,[27],26.1 µM (inactive)
same,GI50,[28],37 µM (inactive)
same,GI50,[29],14 µM (inactive)
same,GI50,[30],26 µM (inactive)
same,GI50,[31],31.7 µM (inactive)
same,GI50,[32],33.3 µM (inactive)
same,GI50,[33],57.3 µM (inactive)
same,GI50,[34],21.5 µM (inactive)
same,GI50,[35],40.7 µM (inactive)
same,GI50,[36],27.2 µM (inactive)
same,GI50,[37],31.1 µM (inactive)
same,GI50,[38],39.4 µM (inactive)
same,GI50,[39],63.7 µM (inactive)
same,GI50,[40],22.6 µM (inactive)
same,GI50,[41],37.8 µM (inactive)
same,GI50,[42],28.2 µM (inactive)
same,GI50,[43],38.7 µM (inactive)
same,GI50,[44],46.3 µM (inactive)
same,GI50,[45],42 µM (inactive)
same,GI50,[46],42.9 µM (inactive)
same,GI50,[47],16 µM (inactive)
same,GI50,[48],35.2 µM (inactive)
same,GI50,[49],35.4 µM (inactive)
same,GI50,[50],69 µM (inactive)
same,GI50,[51],45.9 µM (inactive)
same,GI50,[52],20.7 µM (inactive)
same,GI50,[53],28.5 µM (inactive)
same,GI50,[54],21.1 µM (inactive)
same,GI50,[55],2.26 µM (inactive)
O=C1NI(C#Cc2ccccc2)c2ccccc21,GI50,[1],> 100 µM (inactive)
same,GI50,[2],95.1 µM (inactive)
same,GI50,[3],> 100 µM
same,GI50,[5],> 100 µM (inactive)
same,GI50,[6],> 100 µM (inactive)
same,GI50,[7],59 µM (inactive)
same,GI50,[8],> 100 µM (inactive)
same,GI50,[9],> 100 µM (inactive)
same,GI50,[10],> 100 µM (inactive)
same,GI50,[11],> 100 µM (inactive)
same,GI50,[12],> 100 µM (inactive)
same,GI50,[13],22.2 µM (inactive)
same,GI50,[15],> 100 µM (inactive)
same,GI50,[16],> 100 µM (inactive)
same,GI50,[17],> 100 µM (inactive)
same,GI50,[18],60.3 µM (inactive)
same,GI50,[20],> 100 µM (inactive)
same,GI50,[22],> 100 µM (inactive)
same,GI50,[23],40.6 µM (inactive)
same,GI50,[24],> 100 µM (inactive)
same,GI50,[25],> 100 µM (inactive)
same,GI50,[26],> 100 µM (inactive)
same,GI50,[27],43.7 µM (inactive)
same,GI50,[28],> 100 µM (inactive)
same,GI50,[29],> 100 µM (inactive)
same,GI50,[30],> 100 µM (inactive)
same,GI50,[31],> 100 µM (inactive)
same,GI50,[32],53 µM (inactive)
same,GI50,[33],> 100 µM (inactive)
same,GI50,[34],1.32 µM (inactive)
same,GI50,[56],> 100 µM (inactive)
same,GI50,[35],> 100 µM (inactive)
same,GI50,[36],> 100 µM (inactive)
same,GI50,[39],> 100 µM (inactive)
same,GI50,[40],> 100 µM (inactive)
same,GI50,[41],> 100 µM (inactive)
same,GI50,[42],65.3 µM (inactive)
same,GI50,[43],29.7 µM (inactive)
same,GI50,[44],> 100 µM (inactive)
same,GI50,[45],> 100 µM (inactive)
same,GI50,[46],> 100 µM (inactive)
same,GI50,[47],> 100 µM (inactive)
same,GI50,[57],> 100 µM (inactive)
same,GI50,[48],> 100 µM (inactive)
same,GI50,[49],> 100 µM (inactive)
same,GI50,[50],19 µM (inactive)
same,GI50,[51],> 100 µM (inactive)
same,GI50,[52],> 100 µM (inactive)
same,GI50,[53],> 100 µM (inactive)
same,GI50,[54],53 µM (inactive)
same,GI50,[55],> 100 µM (inactive)
